The values that follow come from patent US20150278436A1, “Methods For Evaluating Effects Of A Treatment On Biological Processes And Pathways” (The Procter & Gamble Company, priority 2014, published 2015).

Common to all, as to format: cell-based
Assay [1] deals with cholesterol metabolism processes/pathways. The assay is described as follows: Percentile of treatment anti-aging effect on Gene Ontology processes/pathways (FIG. 6). Particulars: for effect on the cholesterol metabolism processes/pathways: processes/pathways 100a-h, associated with fibroblasts. An excerpt: (§1) In general, the method computes a distance between two vectors (i.e., a vector distance), and determines the statistical significance of the vector distance to assess the effect of a treatment on a particular biological pathway. The first of the two vectors is a set of expression changes representing the treatment effect of an ingredient on genes in the biological pathway, and includes one value for each of the genes in the biological pathway. The second of the vectors is a set of expression changes representing the effect of the condition on the genes of the biological pathway. By comparing the vector distance between the two vectors against an empirical distribution of vector distances, the significance of the effect of the treatment on the biological pathway can be determined. The genes corresponding to each biological pathway/process and represented in each of the vectors are specified by Gene Ontology, KEGG pathway, WikiPathway, and/or any other known source.
Specific methods and calculations will now be described using the examples above in which the target treatment is Pal-KTTKS (and others) and the target condition is aging of skin cells. Throughout, UV-mediated aging may also be referred to as “photo-aging,” and cells subject to photo-aging may be referred to as “UV-exposed skin cells” or “skin cells exposed to UV radiation.” Similarly, non-UV-mediated aging may also be referred to as “intrinsic aging,” and cells subject to intrinsic aging may be referred to as “non-UV-exposed skin cells.” The treatment effect—in this case the anti-aging effect—of a specified ingredient (e.g., Pal-KTTKS) is measured by the vector distance (e.g., cosine distance) between two vectors of expression changes (e.g., log 2 fold expression changes) of genes in a target biological process. […]
(§2) While the vector distance for a treatment and a target biological pathway is indicative of the effect of the treatment on the target biological pathway, the vector distance by itself is not indicative of the significance of the effect relative to other effects on other biological pathways. The statistical significance of a particular vector distance may be extrapolated from an empirical distribution of vector distances calculated using reference genomics data such as connectivity map (CMap) genomics data. […]
Using the distributions, a percentile may be calculated for the vector distance between the clinical and treatment vectors. Specifically, the percentile among the extreme region of the distribution for the i-th target biological process is calculated according to […]

For assay [2], the system named is cholesterol biosynthesis pathway. The assay is described as follows: Vector (cosine) distance between treatment and clinical aging gene expression vectors, with percentile in the reference genomics distribution (FIG. 4).
From the text: as §1
In the case of a study of the effects of a particular agent, Pal-KTTKS (e.g., at 3 ppm concentrations), on aging of skin cells, for example, a particular biological process may be targeted. For each of the genes in the target biological process, the expression changes (e.g., log 2 fold changes) between old and young cells may be calculated for cells exposed to ultraviolet (UV) radiation (e.g., cells taken from the arms), for cells not exposed to UV radiation (e.g., cells taken from the buttocks), or for both. That is, the condition genomics data 34 may be compared to the control genomics data 33 to determine the expression change for each of the genes in the target biological process. The expression changes between treated and untreated cells may also be calculated for each of the genes in the target biological process, which in some implementations may include comparing the control genomics data 33 to the treatment genomics data 32. Each set of expression changes (where each set comprises an expression change for each of the genes in the target biological process) forms a corresponding vector, and the vector for the treatment effect (also referred to hereafter as the “treatment vector”) is compared to the vector for the reference effect (e.g., the vector for old/young cells), which is also referred to herein as a “clinical vector,” by taking the distance (e.g., cosine distance) between the vectors.
Specific methods and calculations will now be described using the examples above in which the target treatment is Pal-KTTKS (and others) and the target condition is aging of skin cells. Throughout, UV-mediated aging may also be referred to as “photo-aging,” and cells subject to photo-aging may be referred to as “UV-exposed skin cells” or “skin cells exposed to UV radiation.” Similarly, non-UV-mediated aging may also be referred to as “intrinsic aging,” and cells subject to intrinsic aging may be referred to as “non-UV-exposed skin cells.” The treatment effect—in this case the anti-aging effect—of a specified ingredient (e.g., Pal-KTTKS) is measured by the vector distance (e.g., cosine distance) between two vectors of expression changes (e.g., log 2 fold expression changes) of genes in a target biological process. One of the vectors compares treatment genomics data for the genes with control genomics data for the genes to represent the treatment effects on the genes (i.e., a “treatment effect vector” or “treatment vector” of the ingredient). […]

The subject of assay [3] is ATPase regulation processes/pathways. The assay is described as follows: Percentile of treatment anti-aging effect on Gene Ontology processes/pathways (FIG. 7).
From the text: as §1, with “The genes corresponding to each biological pathway/process and represented in each of the vectors are specified by Gene Ontology, KEGG pathway, WikiPathway, and/or any other known source.” left out
as §2

For assay [4], the system named is innate and adaptive immunity processes/pathways. The assay is described as follows: Percentile of treatment anti-aging effect on Gene Ontology processes/pathways (FIG. 8).
From the text: as §1, with “The genes corresponding to each biological pathway/process and represented in each of the vectors are specified by Gene Ontology, KEGG pathway, WikiPathway, and/or any other known source.” left out
as §2

Take Pal-KTTKS: the “percentile values for each of the biological processes/pathways 100a-h” value in assay [1] (cholesterol metabolism set, FIG. 6) was “very low percentile values”. The “effect on the cholesterol metabolism processes/pathways” value in assay [1] (FIG. 6) was “very strong effect”. Further, in assay [2] (3 ppm on fibroblast cells, UV-exposed cells), the “calculated percentile of vector distance in distribution from fibroblast reference genomics data, UV-mediated aging” value is given as 0.36. Besides, the “cosine distance with the photo aging vector” value in assay [2] (3 ppm on fibroblast cells, UV-exposed cells clinical vector, cholesterol biosynthesis pathway) is −0.640. In addition, the “calculated percentile of vector distance in distribution from fibroblast reference genomics data, intrinsic aging” value in assay [2] (3 ppm on fibroblast cells, non-UV-exposed cells) was 0.22. The “cosine distance with the intrinsic aging vector” value in assay [2] (3 ppm on fibroblast cells, non-UV-exposed cells clinical vector, cholesterol biosynthesis pathway) is on record as −0.720. In assay [2] (both intrinsic and UV-mediated aging), the “anti-aging benefit on the cholesterol synthesis pathway” value was “strong anti-aging benefit”. Also, the “effect on the ATPase regulation processes/pathways overall” value in assay [3] is given as “almost no effect”.

As to `NC(=O)c1cccnc1` [Niacinamide], the “percentile for steroid metabolic process (100b)” value in assay [1] (columns D and E, only single process below exemplary threshold) is on record as below 5%. Besides, the “effect on the cholesterol metabolism processes/pathways” value in assay [1] (FIG. 6) was “likely does not strongly affect”. Also, the “effect on the set 140 of innate and adaptive immunity pathways” value in assay [4] is on record as “strong effect”. Further, in assay [4] (many of the percentile values, example threshold), the “percentile values for innate and adaptive immunity processes/pathways” value is recorded as below 5%. In addition, the “effect on the ATPase regulation processes/pathways overall” value in assay [3] is listed as “almost no effect”.
